Reference: US20040043959A1, “Combination therapies for treating methylthioadenosine phosphorylase deficient cells” (priority 2002, published 2004)

Target: T1, Human MTAP (Homo sapiens, UniProt Q13126)
T1 construct: six-histidine tag (His6) (N); made in house; host or cells: E. coli BL21 DE3
T1 sequence (Q13126 1-283): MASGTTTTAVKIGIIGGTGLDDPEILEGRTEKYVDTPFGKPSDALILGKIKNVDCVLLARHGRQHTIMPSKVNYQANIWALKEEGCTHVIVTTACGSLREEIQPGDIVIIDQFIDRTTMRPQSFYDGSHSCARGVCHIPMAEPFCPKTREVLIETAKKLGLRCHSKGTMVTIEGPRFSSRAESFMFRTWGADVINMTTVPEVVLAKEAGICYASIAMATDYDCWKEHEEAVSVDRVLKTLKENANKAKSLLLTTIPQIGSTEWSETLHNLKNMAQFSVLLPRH
Assay: MTAP substrate assay, coupled spectrophotometric (adenine, xanthine oxidase)
Type: biochemical
Conditions: 2 nM MTAP; for activity at 50 µM: 10 min, compound 50 uM, relative to MTA at 50 uM, read-out: MT-A—50: initial velocity as a percentage of the initial velocity with MTA as substrate; for MT-A—10: initial velocity as a percentage of the initial velocity with MTA as substrate: compound 10 uM, relative to MTA at 10 uM
Protocol: An enzymatic assay to determine the activity of MTAP against a given substrate was performed. Human MTAP containing an N-terminal six-histidine tag was expressed in E. coli BL21 DE3 cells. The protein was purified to homogeneity by Ni2+ affinity chromatography. Enzymatic activity was measured using a coupled spectrophotometric assay designed to monitor the reaction product adenine (Savarese, T. M., Crabtree, G. W., and Parks, R. E. Jr., (1980) Biochem. Pharmacol. 30, 189-199). Various concentrations of the indicated 5′-deoxymethylthio adenosine (MTA) or substrate were incubated in assay buffer (40 mM potassium phosphate buffer, 1 mM, and DTT 0.8 units/ml xanthine oxidase coupling enzyme) for 5 minutes at 37° C. The reaction was initiated by the addition of MTAP. The exact concentration of enzyme used varied for each substrate tested and ranged from 2 nM to 500 nM. Activity as a function of enzyme concentration was determined for each substrate tested to ensure that the appropriate enzyme concentration was used. Activity was detected by continuous monitoring of absorbance at 305 nm for 10 minutes (ΔE=15,500 M^−1).
Library compounds (10 and 50 uM) were tested using the assay described above with 2 nM MTAP enzyme. The resultant initial velocities are reported as a percentage of the initial velocity observed when MTA is the substrate. MTA controls, 10 and 50 uM concentrations, were run on each plate alongside the library compounds.

`Nc1ncnc2c1ncn2[C@@H]1O[C@H](CSc2nc3ccccc3c(=O)[nH]2)[C@@H](O)[C@H]1O` [2(G)(50), 2-({[(2S, 3S, 4R, 5R)-2-(6-amino-9H-purin-9-yl)-dihydroxytetrahydro-furan-2-yl]methyl}thio)-quinazolin-4-(3H)-one] was tested, and the activity at 50 µM was 37% and the “MT-A—10: initial velocity as a percentage of the initial velocity with MTA as substrate” value was 9%.
With `Nc1ccc2[nH]c(SC[C@H]3O[C@@H](n4cnc5c(N)ncnc54)[C@H](O)[C@@H]3O)nc2c1` [2(G)(51), (2R, 3R, 4S, 5S)-2-(6-amino-9H-purin-9-yl)-5-{[(5-amino-1H-benzoimidazol-2-yl)thio]methyl}tetrahydro-furan-3,4-diol] the activity at 50 µM was 36% and the “MT-A—10: initial velocity as a percentage of the initial velocity with MTA as substrate” value was 16%.
With `Cc1nnc(SC[C@H]2O[C@@H](n3cnc4c(N)ncnc43)[C@H](O)[C@@H]2O)s1` [2(G)(52), (2R, 3R, 4S, 5S)-2-(6-amino-9H-purin-9-yl)-5-{[(5-methyl-1,3,4-thiadiazol-2-yl)thio]methyl}tetrahydro-furan-3,4-diol] the activity at 50 µM was 23% and the “MT-A—10: initial velocity as a percentage of the initial velocity with MTA as substrate” value was 19%.
For `Nc1ncnc2c1ncn2[C@@H]1O[C@H](CSc2nc[nH]n2)[C@@H](O)[C@H]1O` [2(G)(53), (2R, 3R, 4S, 5S)-2-(6-amino-9H-purin-9-yl)-5-[(1H-1,2,4-triazol-3-ylthio)methyl]tetrahydro-furan-3,4-diol], the activity at 50 µM was 57% and the “MT-A—10: initial velocity as a percentage of the initial velocity with MTA as substrate” value was 58%.
In the case of `COC(=O)CSC[C@H]1O[C@@H](n2cnc3c(N)ncnc32)[C@H](O)[C@@H]1O` [2(G)(54), methyl ({[(2S, 3S, 4R, 5R)-5-(6-amino-9H-purin-9-yl)-3,4-dihydroxy-tetrahydrofuran-2-yl]methyl}thio)acetate], the activity at 50 µM is reported as 44% and the “MT-A—10: initial velocity as a percentage of the initial velocity with MTA as substrate” value is reported as 36%.
For `Nc1ncnc(SC[C@H]2O[C@@H](n3cnc4c(N)ncnc43)[C@H](O)[C@@H]2O)n1` [2(G)(55), (2R, 3R, 4S, 5S)-2-(6-amino-9H-purin-9-yl)-5-{[(4-amino-1,3,5-triazin-2-yl)thio]methyl}tetra-hydrofuran-3,4-diol], the activity at 50 µM was 47% and the “MT-A—10: initial velocity as a percentage of the initial velocity with MTA as substrate” value was 43%.
In the case of `CNC(=O)CSC[C@H]1O[C@@H](n2cnc3c(N)ncnc32)[C@H](O)[C@@H]1O` [2(G)(56), 2-({[(2S, 3S, 4R, 5R)-5-(6-amino-9H-purin-9-yl)-dihydroxytetrahydrofuran-2-yl]methyl}thio)-N-methylacetamide], the activity at 50 µM is reported as 10% and the “MT-A—10: initial velocity as a percentage of the initial velocity with MTA as substrate” value is reported as 6%.
In the case of `Nc1ncnc2c1ncn2[C@@H]1O[C@H](CSCCCCO)[C@@H](O)[C@H]1O` [2(G)(57)], the activity at 50 µM is reported as 45% and the “MT-A—10: initial velocity as a percentage of the initial velocity with MTA as substrate” value is reported as 31%.
With `Nc1ncnc2c1ncn2[C@@H]1O[C@H](CSCCc2ccncc2)[C@@H](O)[C@H]1O` [2(G)(58), (2R, 3R, 4S, 5S)-2-(6-amino-9H-purin-9-yl)-5-{[(2-pyridin-4-ylethyl)thio]methyl}tetra-hydrofuran-3,4-diol] the activity at 50 µM was 47% and the “MT-A—10: initial velocity as a percentage of the initial velocity with MTA as substrate” value was 38%.
With `Nc1cccnc1SC[C@H]1O[C@@H](n2cnc3c(N)ncnc32)[C@H](O)[C@@H]1O` [2(G)(59), (2R, 3R, 4S, 5S)-2-(6-amino-9H-purin-9-yl)-5-{[(3-aminopyridin-2-yl)thio]methyl}tetra-hydrofuran-3,4-diol] the activity at 50 µM was 47% and the “MT-A—10: initial velocity as a percentage of the initial velocity with MTA as substrate” value was 18%.
With `NC(=O)c1cccnc1SC[C@H]1O[C@@H](n2cnc3c(N)ncnc32)[C@H](O)[C@@H]1O` [2(G)(60), 2-({[(2S, 3S, 4R, 5R)-5-(6-amino-9H-purin-9-yl)-3,4-dihydroxytetrahydro-furan-2-yl]methyl}thio)-nicotinamide] the activity at 50 µM was 8% and the “MT-A—10: initial velocity as a percentage of the initial velocity with MTA as substrate” value was 4%.
With `Nc1ncnc2c1ncn2[C@@H]1O[C@H](CSCCc2cnccn2)[C@@H](O)[C@H]1O` [2(G)(61)] the activity at 50 µM was 20% and the “MT-A—10: initial velocity as a percentage of the initial velocity with MTA as substrate” value was 15%.
